The supplement of paper PMC11061612

How the values were obtained:
[1] = system: CTV-1 (T-Lymphoblastic Leukemia); experiment: Bliss excess, mean over the matrix (fraction); higher = more synergy
Summary of the method: (§1)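 Cell lines grown in DMEM/F12 or RPMI with 10% FBS were plated in 1536-well plates and held 24 hours at 37°C, 5% CO2 before 72 hours of exposure to two-drug dose matrices, with DMSO typically at 0.2%. CellTiter-Glo 2.0 luminescence gave viability, which was converted to inhibition. Vehicle wells were set to 0 and blank wells to 1. Combination Emax is the second-highest inhibition in the matrix, and Bliss excess is the observed combination effect minus the expected EA + EB − EA·EB, where EA and EB are the single-agent effects.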

[2] = system: G-292-Clone-A141B1 (Osteosarcoma); experiment: as above
Summary of the method: as §1

[3] = system: KARPAS-1106P (B-Cell Non-Hodgkin's Lymphoma); experiment: as above
Summary of the method: as §1

[4] = system: KATOIII (Gastric Carcinoma); experiment: as above
Summary of the method: as §1

[5] = system: KM-H2 (Hodgkin's Lymphoma); experiment: as above
Summary of the method: as §1

[6] = system: NCI-H1694 (Small Cell Lung Carcinoma); experiment: as above
Summary of the method: as §1

[7] = system: NCI-H2595 (Mesothelioma); experiment: as above
Summary of the method: as §1

[8] = system: RH-1 (Ewing's Sarcoma); experiment: as above
Summary of the method: as §1

[9] = system: SUIT-2 (Pancreatic Carcinoma); experiment: as above
Summary of the method: as §1

[10] = system: SW1990 (Pancreatic Carcinoma); experiment: as above
Summary of the method: as §1

[11] = system: TGBC24TKB (Biliary Tract Carcinoma); experiment: as above
Summary of the method: as §1

[12] = system: CTV-1 (T-Lymphoblastic Leukemia); experiment: combination Emax (second highest fraction inhibited in the dose matrix, 72 h); higher = more inhibition; extreme values may be limits of the assay
Summary of the method: as §1

[13] = system: DMS-273 (Small Cell Lung Carcinoma); experiment: as above
Summary of the method: as §1

[14] = system: G-292-Clone-A141B1 (Osteosarcoma); experiment: as above
Summary of the method: as §1

[15] = system: HCC2157 (Breast Carcinoma); experiment: as above
Summary of the method: as §1

[16] = system: IGR-1 (Melanoma); experiment: as above
Summary of the method: as §1

[17] = system: KARPAS-1106P (B-Cell Non-Hodgkin's Lymphoma); experiment: as above
Summary of the method: as §1

[18] = system: NALM-6 (B-Lymphoblastic Leukemia); experiment: as above
Summary of the method: as §1

[19] = system: NCI-H2595 (Mesothelioma); experiment: as above
Summary of the method: as §1

[20] = system: SW1088 (Low Grade Glioma); experiment: as above
Summary of the method: as §1
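For Bliss excess, mean over the matrix in this document: after 72 h of two-drug dosing.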

| SMILES | Bliss excess [1] | Bliss excess [2] | Bliss excess [3] | Bliss excess [4] | Bliss excess [5] | Bliss excess [6] | Bliss excess [7] | Bliss excess [8] | Bliss excess [9] | Bliss excess [10] | Bliss excess [11] | combination Emax [12] | combination Emax [13] | combination Emax [14] | combination Emax [15] | combination Emax [16] | combination Emax [17] | combination Emax [18] | combination Emax [19] | combination Emax [20] |
| --- | --- | --- | --- | --- | --- | --- | --- | --- | --- | --- | --- | --- | --- | --- | --- | --- | --- | --- | --- | --- |
| CN(CCO)CC[C@H](CSc1ccccc1)Nc1ccc(S(=O)(=O)NC(=O)c2ccc(N3CCC([C@@H](O)c4ccccc4-c4ccc(Cl)cc4)CC3)cc2)cc1S(=O)(=O)C(F)(F)F [AZD4320] + Cn1cnc2c(F)c(Nc3ccc(Br)cc3Cl)c(C(=O)NOCCO)cc21 [Selumetinib] (first compound max 1 µM, 7x7, partner max 3 µM) | 0.0708 | -0.0021 | -0.0007 | -0.0086 | 0.0106 | 0.0042 | 0.04 | 0.0015 | 0.0126 | 0.0357 | 0.0369 | 0.706 | 0.349 | 0.564 | 0.923 | 0.986 | 0.769 | 0.982 | 0.275 | 0.289 |
| C=CCn1c(=O)c2cnc(Nc3ccc(N4CCN(C)CC4)cc3)nc2n1-c1cccc(C(C)(C)O)n1 [AZD1775] + O=C(c1cc(Cc2n[nH]c(=O)c3ccccc23)ccc1F)N1CCN(C(=O)C2CC2)CC1 [Olaparib] (first compound max 1 µM, partner max 10 µM) | -0.0239 | 0.0161 | -0.0513 | -0.0227 | 0.0084 | -0.036 | -0.0218 | 0.044 | -0.0049 | -0.0697 | -0.0499 | 0.977 | 0.549 | 0.294 | 0.892 | 0.296 | 0.872 | 0.94 | 0.179 | 0.59 |
| Cn1cnc2c(F)c(Nc3ccc(Br)cc3Cl)c(C(=O)NOCCO)cc21 [Selumetinib] + C[C@@H]1COCCN1C2=NC(=NC(=C2)C3(CC3)[S@](=N)(=O)C)C4=C5C=CNC5=NC=C4 [AZD6738] (first compound max 10 µM, 7x7, partner max 10 µM) | -0.001 | -0.0303 | -0.0007 | -0.0433 | -0.0148 | -0.0037 | -0.0326 | -0.0215 | 0.0298 | -0.0653 | 0.0704 | 0.906 | 0.811 | 0.141 | 0.856 | 0.707 | 0.648 | 0.972 | 0.165 | 0.65 |
